Test system: wheat rust fungi (Puccinia recondita)
Experiment: Comparative Test Example: wheat rust foliar spray test
Type: in vivo
Conditions: wheat (cv; Shirogane), 500 ppm foliar spray, inoculated after 5 days
Protocol: The spores of wheat rust fungi (Puccinia recondita) were sprinkling-inoculated. After inoculation, the plants were placed under a dark and humid condition at 23° C. for 1 day and were then cultivated at 20° C. under lighting for 8 days and a lesion area was observed.

## Cc1cc(C)n(-c2ccc(OCc3ccccc3-n3nnn(C)c3=O)c(Cl)c2)n1 [control compound, 1-{2-[2-chloro-4-(3,5-dimethyl-pyrazol-1-yl)-phenoxymethyl]-phenyl}-4-methyl-1,4-dihydrotetrazole-5-one]
  lesion area compared to the lesion area in untreated plants: ≥ 70%

From patent US9554576B2, “Tetrazolinone compounds and their use as pesticides” (SUMITOMO CHEMICAL COMPANY, LIMITED, priority 2012, dated 2017)
